# Laboratory results published in patent US11191820B2, “Method for inducing early T memory response with short peptides anti-tumor vaccine” (OSE IMMUNOTHERAPEUTICS, priority 2015, dated 2021).
# Tests used:
# Format in all cases: in vivo, human
# [1] = test system: central memory T cells; experiment: Central memory T cell cultured ELISPOT, phase 2 trial in advanced NSCLC
# Protocol: CTL Immune responses measured though cultured Elispot. The immunogenicity was measured in Phase 2 clinical trial on cryopreserved PBMC from each test sample were thawed in 5% human culture medium (RPMI-1640 medium with 25 mM HEPES, supplemented with 5% human AB serum, 4 mM L-glutamine, 0.5 mM sodium pyruvate, 0.1 mM MEM non-essential amino acids, 100 μg/ml streptomycin, and 100 U/ml penicillin) containing 30 μg/ml DNAase. After centrifugation for 5 minutes at 1200 rpm, the cell pellets were resuspended in 5% human culture medium and washed 2 times. For the central Memory T cell cultured ELISPOT assay, 2×10^6/ml PBMC were placed in replicate wells in a 48-well plates and stimulated for 10 days with 10 μg/ml of each peptide. As a positive control, PBMC were also stimulated with a pool of recall viral peptides. Human rIL2 (10 U/ml) was added to the peptide-stimulated cultures at day 1, day 4 and day 7. After 10 days the stimulated cells were harvested and plated at a concentration of 5×10^4/well. Assay wells also received irradiated autologous PBMC (1×10^5/well) and 10 μg/ml peptide, either the vaccine peptide, irrelevant peptide or positive control peptides. Cells stimulated in vitro with each analog epitope were also tested against the corresponding wild-type epitope.
# Data analysis and acceptance criteria. Mean and standard deviation (SD) of spots in replicate wells were calculated in all assays by transferring raw ELISPOT data from each experiment to an Excel-based computer program. Positive vaccine-induced T-cell responses were determined according to the criteria described below.
# Acceptance Criteria for peptide-Induced specific T-cell response through central memory T cells: The positive criteria for CTL responses used in the phase 2 trial was identical to the criteria in the phase 1/2 trials which was established prospectively after analyzing the variability of pre-treatment responses in patients against each vaccine epitope and the irrelevant HBV control epitope. A positive peptide-induced CTL/T memory response to a given epitope met all of the following conditions: 1) was greater than 5 SFC above the irrelevant epitope response, 2) was greater than the mean SFC of the irrelevant epitope response, plus 2 SD, and 3) was two-fold greater than the SFC response in the pre-vaccination sample from the same patient, plus 2 SD. The inclusion of “plus two standard deviations” was used to accommodate the assay variability and served to increase the criteria stringency.
# [2] = test system: central memory T cells; experiment: Cultured IFN-γ ELISPOT after 10-day in vitro stimulation of PBMC, phase 1/2 NSCLC trial of OSE-2101; design: key to net SFC of vaccine positive CTL responses: —, indicates SFC response did not meet criteria and vaccine response was negative; conditions: for Mean SFC / No. Positive Responses: 6 NSCLC patients
# Protocol: (§1) Clinical study design. Both trials were designed as phase 1/2, open label, multi-center, single dose, multiple administration studies to evaluate the safety and immunogenicity of the OSE-2101 immunotherapy. Patients were treated with 1 ml OSE-2101 every 3 weeks for a total of six doses. Each dose was administered subcutaneously in the same vicinity in the deltoid or upper thigh region, or at a contralateral site if local side-effects were observed. The study duration for each completed patient was 18 weeks. Clinical responses or patient survival were not measured in either phase 1/2 studies.
# (§2) Clinical sample processing. Blood or leukapheresis product was obtained from patients at the pre-treatment, the Week 9 and Week 18 time points, 3 weeks after the third and sixth dose of OSE-2101 respectively. Peripheral blood mononuclear cells (PBMC) were isolated from samples within 24 hours of collection using a FICOLL-PAQUE density gradient and cryopreserved in containers designed to ensure optimal freezing (Mr. Frosty, Nalgene). For use, cells were rapidly thawed at 37° C. then transferred to human AB serum-containing medium for work-up.
# (§3) Measurement of central T memory cells responses and T effector memory cells. The CTL responses in 16 total patients (10 colon and six NSCLC) were monitored for CTL responses against each epitope and against the wild-type epitope of epitopes analogs. For each patient, the pre-treatment, Week 9 and Week 18 time points were batch-tested in the same experiment to allow pre- versus post-treatment response comparison in the same experiment. Central T memory cells responses were measured using an IFN-γ enzyme-linked immunospot (cultured ELISPOT) assay following in vitro stimulation of PBMC for 10 days with each vaccine epitope. Briefly, PBMC from each time point were stimulated on day 0 with 10 μg/ml of each epitope individually in replicate in 48-well culture plates (2×10^6 PBMC/well). All cultures were fed with rIL-2 (Endogen, Woburn, Mass.; 10 U/ml final concentration) on days 1, 4 and 7. Ten days after initiation of culture, cells were harvested and tested for activity against specific vaccine peptides and corresponding wild-type peptides of vaccine analogs in the T memory ELISPOT assay. Cells were tested in Millipore IP 96-well plates pre-coated with mouse anti-human IFN-γ antibody (Mabtech USA, Cincinnati, Ohio). Five×10^4 cells and 1.25×10^4 cells from each culture were plated in triplicate wells together with 10^5 irradiated autologous PBMC and 10 μg/ml peptide. As a control, CTL were also tested against an irrelevant HLA-A2.1-binding HBV peptide. After 20 hours incubation, T memory ELISPOT plates were developed by performing sequential incubations with biotinylated anti-human IFN-γ antibody (Mabtech USA), Avidin-Peroxidase Complex (APC, Vector Laboratories, Burlingame, Calif.), and 3-amino-9-ethyl carbazole (AEC) substrate (Sigma Aldrich, St. Louis, Mo.). Spot-forming cells (SFC) were enumerated using a computer-assisted image analysis system (Zeiss KS ELISPOT Reader, Carl Zeiss MicroImaging, Thornwood, N.J.). Data is reported as the net SFC per 5×10^4 cells after subtracting spots induced with the irrelevant HBV peptide.
# [3] = test system: central memory T cells; experiment: Cultured IFN-γ ELISPOT after 10-day in vitro stimulation of PBMC, phase 1/2 colon cancer trial of OSE-2101; design: key to net SFC of vaccine positive CTL responses: —, indicates SFC response did not meet criteria and vaccine response was negative; conditions: for Mean SFC: 10 colon patients
# Protocol: as §1, §2, §3
sequence,measurement,setting,value
KVFGSLAFV [HER2.369L2V9 A],% of patients with positive CTL/central memory T cell response,"[1]; phase 2, month 9",29%
same,patients with positive CTL/central memory T cell response / patients tested,"[1]; phase 2, month 9",2/7
same,% of patients with positive CTL/central memory T cell response,"[1]; phase 2, month 12",50%
same,patients with positive CTL/central memory T cell response / patients tested,"[1]; phase 2, month 12",2/4
same,% of patients with positive CTL/central memory T cell response,"[1]; phase 2, week 9",42%
same,patients with positive CTL/central memory T cell response / patients tested,"[1]; phase 2, week 9",14/33
same,% of patients with positive CTL/central memory T cell response,"[1]; phase 2, week 18",44%
same,patients with positive CTL/central memory T cell response / patients tested,"[1]; phase 2, week 18",14/32
same,% of patients with positive CTL/central memory T cell response,"[1]; phase 2, week 30",57%
same,patients with positive CTL/central memory T cell response / patients tested,"[1]; phase 2, week 30",13/23
same,Mean SFC,[2]; Week 9,"84.3 SFC per 50,000 cells"
same,No. Positive Responses,[2]; Week 9,1
same,Mean SFC,[2]; Week 18,"109.3 SFC per 50,000 cells"
same,No. Positive Responses,[2]; Week 18,4
same,net SFC of vaccine positive CTL responses,"[2]; NSCLC patient 201, Week 9",—
same,net SFC of vaccine positive CTL responses,"[2]; NSCLC patient 201, Week 18",—
same,net SFC of vaccine positive CTL responses,"[2]; NSCLC patient 502, Week 9",—
same,net SFC of vaccine positive CTL responses,"[2]; NSCLC patient 502, Week 18",—
same,net SFC of vaccine positive CTL responses,"[2]; NSCLC patient 504, Week 9","84.3 SFC per 50,000 cells"
same,net SFC of vaccine positive CTL responses,"[2]; NSCLC patient 504, Week 18","284.0 SFC per 50,000 cells"
same,net SFC of vaccine positive CTL responses,"[2]; NSCLC patient 505, Week 9",—
same,net SFC of vaccine positive CTL responses,"[2]; NSCLC patient 505, Week 18","53.0 SFC per 50,000 cells"
same,net SFC of vaccine positive CTL responses,"[2]; NSCLC patient 532, Week 9",—
same,net SFC of vaccine positive CTL responses,"[2]; NSCLC patient 532, Week 18","78.3 SFC per 50,000 cells"
same,net SFC of vaccine positive CTL responses,"[2]; NSCLC patient 651, Week 9",—
same,net SFC of vaccine positive CTL responses,"[2]; NSCLC patient 651, Week 18","22.0 SFC per 50,000 cells"
same,Mean SFC,[3]; Week 9,"120.8 SFC per 50,000 cells"
same,Mean SFC,[3]; Week 18,"315.7 SFC per 50,000 cells"
same,net SFC of vaccine positive CTL responses,"[3]; colon patient 551, Week 9","134.7 SFC per 50,000 cells"
same,net SFC of vaccine positive CTL responses,"[3]; colon patient 551, Week 18","80.7 SFC per 50,000 cells"
same,net SFC of vaccine positive CTL responses,"[3]; colon patient 601, Week 9","112.7 SFC per 50,000 cells"
same,net SFC of vaccine positive CTL responses,"[3]; colon patient 601, Week 18","52.3 SFC per 50,000 cells"
same,net SFC of vaccine positive CTL responses,"[3]; colon patient 602, Week 9",—
same,net SFC of vaccine positive CTL responses,"[3]; colon patient 602, Week 18",—
same,net SFC of vaccine positive CTL responses,"[3]; colon patient 603, Week 9","30.0 SFC per 50,000 cells"
same,net SFC of vaccine positive CTL responses,"[3]; colon patient 603, Week 18",—
same,net SFC of vaccine positive CTL responses,"[3]; colon patient 604, Week 9","88.3 SFC per 50,000 cells"
same,net SFC of vaccine positive CTL responses,"[3]; colon patient 604, Week 18","314.7 SFC per 50,000 cells"
same,net SFC of vaccine positive CTL responses,"[3]; colon patient 605, Week 9","32.7 SFC per 50,000 cells"
same,net SFC of vaccine positive CTL responses,"[3]; colon patient 605, Week 18","33.7 SFC per 50,000 cells"
same,net SFC of vaccine positive CTL responses,"[3]; colon patient 606, Week 9",—
same,net SFC of vaccine positive CTL responses,"[3]; colon patient 606, Week 18","71.0 SFC per 50,000 cells"
same,net SFC of vaccine positive CTL responses,"[3]; colon patient 607, Week 9","389.3 SFC per 50,000 cells"
same,net SFC of vaccine positive CTL responses,"[3]; colon patient 607, Week 18","1642.7 SFC per 50,000 cells"
same,net SFC of vaccine positive CTL responses,"[3]; colon patient 608, Week 9",—
same,net SFC of vaccine positive CTL responses,"[3]; colon patient 608, Week 18",—
same,net SFC of vaccine positive CTL responses,"[3]; colon patient 609, Week 9","58.0 SFC per 50,000 cells"
same,net SFC of vaccine positive CTL responses,"[3]; colon patient 609, Week 18","14.7 SFC per 50,000 cells"
RLLQETELV [HER2-689-WT],% of patients with positive CTL/central memory T cell response,"[1]; phase 2, month 9",0%
same,patients with positive CTL/central memory T cell response / patients tested,"[1]; phase 2, month 9",0/7
same,% of patients with positive CTL/central memory T cell response,"[1]; phase 2, month 12",0%
same,patients with positive CTL/central memory T cell response / patients tested,"[1]; phase 2, month 12",0/4
same,% of patients with positive CTL/central memory T cell response,"[1]; phase 2, week 9",36%
same,patients with positive CTL/central memory T cell response / patients tested,"[1]; phase 2, week 9",4/11
same,% of patients with positive CTL/central memory T cell response,"[1]; phase 2, week 18",27%
same,patients with positive CTL/central memory T cell response / patients tested,"[1]; phase 2, week 18",3/11
same,% of patients with positive CTL/central memory T cell response,"[1]; phase 2, week 30",0%
same,patients with positive CTL/central memory T cell response / patients tested,"[1]; phase 2, week 30",0/6
